{"source": "patent US8735398B2", "about": "(Bristol-Myers Squibb Company, priority 2009, dated 2014)", "note": "pEC50: −log10 of the molar value."}
{"system": "HCV 1b genotype", "assay": "HCV replicon assay (HCV-neo replicon cells, wild-type)", "type": "cell-based, Hepatitis C virus", "conditions": "HCV 1b genotype replicon; class symbol; read-out: EC50 Range against HCV 1b", "outline": "(§1)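 Inhibition was tested in replicon-bearing cells, both wild-type HCV-neo and lines with NS5A resistance substitutions, using the O'Boyle et al. 2005 replicon method or luciferase-reporter formats.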"}
{"molecule": "CN(C)[C@@H](C(=O)N1[C@H](C(=O)Nc2ccc(-c3cnc(-c4ccc(NC(=O)[C@@H]5C[C@@H]6C[C@@H]6N5C(=O)[C@@H](c5ccccc5)N(C)C)cc4)o3)cc2)C[C@@H]2C[C@@H]21)c1ccccc1", "note": "[CB-9, (1S,3S,5S,1′S,3′S,5′S)-N,N′-(1,3-oxazole-2,5-diyldi-4,1-phenylene)bis(2-((2R)-2-(dimethylamino)-2-phenylacetyl)-2-azabicyclo[3.1.0]hexane-3-carboxamide)]", "pEC50": "> 8.34"}
{"system": "HCV 1b genotype", "assay": "HCV replicon assay (HCV-neo replicon cells, wild-type)", "type": "cell-based, Hepatitis C virus", "conditions": "Hepatitis C virus, HCV 1b genotype replicon; class symbol; read-out: EC50 Range against HCV 1b", "outline": "as §1"}
{"molecule": "Cn1nc(-c2ccc(NC(=O)[C@@H]3CCCN3C(=O)C3CC3)cc2)cc1-c1ccc(NC(=O)[C@@H]2CCCN2C(=O)C2CC2)cc1", "note": "[FY-4, (2S,2′S)-N,N′-((1-methyl-1H-pyrazole-3,5-diyl)di-4,1-phenylene)bis(1-(cyclopropylcarbonyl)-2-pyrrolidinecarboxamide)]", "pEC50": "5.00 to 6.00"}
{"molecule": "CCC(=O)N1CCC[C@H]1C(=O)Nc1ccc(-c2cnc(-c3ccc(NC(=O)[C@@H]4CCCN4C(=O)CC)cc3)o2)cc1", "note": "[JG-8, (2S,2′S)-N,N′-(1,3-oxazole-2,5-diyldi-4,1-phenylene)bis(1-propionyl-2-pyrrolidinecarboxamide)]", "pEC50": "6.00 to 7.00"}
{"molecule": "CCc1ccccc1C(=O)N1CC=C[C@H]1C(=O)Nc1ccc(-c2ncc(-c3ccc(NC(=O)[C@@H]4CCCN4C(C)=O)cc3)o2)cc1", "note": "[Example D-2, (2S)-N-[4-[5-[4-[[[(2S)-1-acetyl-2-pyrrolidinyl]carbonyl]amino]phenyl]-2-oxazolyl]phenyl]-1-(2-ethylbenzoyl)-2,5-dihydro-1H-pyrrole-2-carboxamide]", "pEC50": "6.00 to 7.00"}
{"molecule": "CN(C)[C@@H](C(=O)N1[C@H](C(=O)N2CCC[C@H]2C(=O)Nc2ccc(-c3cnc(-c4ccc(NC(=O)[C@@H]5CCCN5C(=O)[C@@H]5C[C@@H]6C[C@@H]6N5C(=O)[C@@H](c5ccccc5)N(C)C)cc4)o3)cc2)C[C@@H]2C[C@@H]21)c1ccccc1", "note": "[Example D-40, (2S,2′S)-N,N′-(1,3-oxazole-2,5-diyldi-4,1-phenylene)bis(1-(((1S,3S,5S)-2-((2R)-2-(dimethylamino)-2-phenylacetyl)-2-azabicyclo[3.1.0]hex-3-yl)carbonyl)-2-pyrrolidinecarboxamide)]", "pEC50": "6.00 to 7.00"}
{"molecule": "CN(C)Cc1nc(-c2ccc(NC(=O)[C@@H]3CCCN3C(=O)Cc3ccccc3)cc2)c(-c2ccc(NC(=O)[C@@H]3CCCN3C(=O)Cc3ccccc3)cc2)o1", "note": "[OL-6]", "pEC50": "5.00 to 6.00"}
{"molecule": "CC(=O)N1CCC[C@H]1C(=O)Nc1ccc(-c2ccc(-c3ccc(NC(=O)[C@@H]4CCCN4C(C)=O)cc3)s2)cc1", "note": "[OL-24, (2S,2′S)-N,N′-(2,5-thienediyldi-4,1-phenylene)bis[1-acetyl-2-pyrrolidinecarboxamide]]", "pEC50": "6.00 to 7.00"}
{"molecule": "CC(=O)N[C@@H](C(=O)N1CCCC1C(=O)Nc1ccc(-c2cnc(-c3ccc(NC(=O)C4CCCN4C(=O)[C@H](NC(C)=O)c4ccccc4)cc3)o2)cc1)c1ccccc1", "note": "(stereo partly drawn) [OL-53, N,N′-(1,3-oxazole-2,5-diyldi-4,1-phenylene)bis(1-((2R)-2-acetamido-2-phenylacetyl)-2-pyrrolidinecarboxamide)]", "pEC50": "> 8.34"}
{"molecule": "COc1cc(C(=O)N[C@@H](C)C(=O)Nc2ccc(-c3nnc(-c4ccc(NC(=O)[C@H](C)NC(=O)c5cc(OC)c6ccccc6n5)cc4)o3)cc2)nc2ccccc12", "note": "[RK-22, N,N′-(1,3,4-oxadiazole-2,5-diylbis(4,1-phenyleneimino((2S)-1-oxo-1,2-propanediyl)))bis(4-methoxy-2-quinolinecarboxamide)]", "pEC50": "6.00 to 7.00"}
{"molecule": "CCc1ccccc1C(=O)N1CCC[C@H]1C(=O)Nc1ccc(-c2nnc(-c3ccc(NC(=O)[C@@H]4CCCN4C(=O)c4ccccc4CC)cc3)o2)cc1", "note": "[RK-9, (2S,2′S)-N,N′-(1,3,4-oxadiazole-2,5-diyldi-4,1-phenylene)bis(1-(2-ethylbenzoyl)-2-pyrrolidinecarboxamide)]", "pEC50": "6.00 to 7.00"}
{"molecule": "CO[C@@H](C(=O)N1CCC[C@H]1C(=O)Nc1ccc(-c2cnc(-c3ccc(NC(=O)[C@@H]4CCCN4C(=O)[C@H](OC)c4ccccc4)cc3)o2)cc1)c1ccccc1", "note": "[JG-25, (2S,2′S)-N,N′-(1,3-oxazole-2,5-diyldi-4,1-phenylene)bis(1-((2R)-2-methoxy-2-phenylacetyl)-2-pyrrolidinecarboxamide)]", "pEC50": "7.00 to 8.34"}
{"molecule": "C[C@](O)(C(=O)N1CCC[C@H]1C(=O)Nc1ccc(-c2nnc(-c3ccc(NC(=O)[C@@H]4CCCN4C(=O)[C@](C)(O)c4ccccc4)cc3)o2)cc1)c1ccccc1", "note": "[RK-28, (2S,2′S)-N,N′-(1,3,4-oxadiazole-2,5-diyldi-4,1-phenylene)bis(1-((2R)-2-hydroxy-2-phenylpropanoyl)-2-pyrrolidinecarboxamide)]", "pEC50": "> 8.34"}
{"molecule": "COC(C(=O)N1CCC[C@H]1C(=O)Nc1ccc(-c2nnc(-c3ccc(NC(=O)[C@@H]4CCCN4C(=O)C(OC)c4ccccc4)cc3)o2)cc1)c1ccccc1", "note": "(stereo partly drawn) [RK-11, (2S,2′S)-N,N′-(1,3,4-oxadiazole-2,5-diyldi-4,1-phenylene)bis(1-(methoxy(phenyl)acetyl)-2-pyrrolidinecarboxamide)]", "pEC50": "6.00 to 7.00"}
{"molecule": "O=C(Nc1ccc(-c2nnc(-c3ccc(NC(=O)[C@@H]4CCCN4C(=O)c4ccc5ccccc5n4)cc3)o2)cc1)[C@@H]1CCCN1C(=O)c1ccc2ccccc2n1", "note": "[RK-10, (2S,2′S)-N,N′-(1,3,4-oxadiazole-2,5-diyldi-4,1-phenylene)bis(1-(2-quinolinylcarbonyl)-2-pyrrolidinecarboxamide)]", "pEC50": "5.00 to 6.00"}
{"molecule": "CC(=O)N1CCC[C@H]1C(=O)Nc1ccc(-c2cnc(-c3ccc(NC(=O)[C@@H]4C[C@@H](O)CN4C(=O)OCc4ccccc4)cc3)o2)cc1", "note": "[MS-3, benzyl (2S,4R)-2-((4-(5-(4-((((2S)-1-acetyl-2-pyrrolidinyl)carbonyl)amino)phenyl)-1,3-oxazol-2-yl)phenyl)carbamoyl)-4-hydroxy-1-pyrrolidinecarboxylate]", "pEC50": "6.00 to 7.00"}
{"molecule": "O=C(Nc1ccc(-c2cnc(-c3ccc(NC(=O)[C@@H]4CCCN4C(=O)OCc4ccccc4)cc3)o2)cc1)[C@@H]1CCCN1C(=O)OCc1ccccc1", "note": "[JG-1, dibenzyl (2S,2′S)-2,2′-(1,3-oxazole-2,5-diylbis(4,1-phenylenecarbamoyl))di(1-pyrrolidinecarboxylate)]", "pEC50": "> 8.34"}
{"system": "HCV 1b genotype", "assay": "HCV replicon assay (HCV-neo replicon cells, wild-type)", "type": "cell-based, Hepatitis C virus", "conditions": "Hepatitis C virus, HCV 1b genotype replicon; class symbols; read-out: EC50 Range against HCV 1b", "outline": "as §1"}
{"molecule": "O=C(Nc1ccc(-c2cnc(-c3ccc(NC(=O)[C@@H]4C[C@@H](O)CN4C(=O)Cc4cccnc4)cc3)o2)cc1)[C@@H]1C[C@@H](O)CN1C(=O)Cc1cccnc1", "note": "[XY-45, (2S,4R,2′S,4′R)-N,N′-(1,3-oxazole-2,5-diyldi-4,1-phenylene)bis(4-hydroxy-1-(3-pyridinylacetyl)-2-pyrrolidinecarboxamide)]", "pEC50": "5.00 to 6.00"}
{"molecule": "O=C(Nc1ccc(-c2cnc(-c3ccc(NC(=O)[C@@H]4CCCN4C(=O)C4CSC5CCC(=O)N54)cc3)o2)cc1)[C@@H]1CCCN1C(=O)C1CSC2CCC(=O)N21", "note": "(stereo partly drawn) [JR-17, (2S,2′S)-N,N′-(2,5-oxazolediyldi-4,1-phenylene)bis[1-[(hexahydro-5-oxopyrrolo[2,1-b]thiazol-3-yl)carbonyl]-2-pyrrolidinecarboxamide]]", "pEC50": "5.00 to 6.00"}
{"molecule": "CCc1ccccc1C(=O)N1C[C@H](OC(C)(C)C)C[C@H]1C(=O)Nc1ccc(-c2cnc(-c3ccc(NC(=O)[C@@H]4C[C@@H](OC(C)(C)C)CN4C(=O)c4ccccc4CC)cc3)o2)cc1", "note": "[XY-65, (2S,4R,2′S,4′R)-N,N′-(1,3-oxazole-2,5-diyldi-4,1-phenylene)bis(4-tert-butoxy-1-(2-ethylbenzoyl)-2-pyrrolidinecarboxamide)]", "pEC50": "5.00 to 6.00"}
{"molecule": "O=C(Nc1ccc(-c2cnc(-c3ccc(NC(=O)[C@@H]4CCCN4C(=O)C4CCCO4)cc3)o2)cc1)[C@@H]1CCCN1C(=O)C1CCCO1", "note": "(stereo partly drawn) [XY-31, (2S,2′S)-N,N′-(1,3-oxazole-2,5-diyldi-4,1-phenylene)bis(1-(tetrahydro-2-furanylcarbonyl)-2-pyrrolidinecarboxamide)]", "pEC50": "7.00 to 8.34"}
{"molecule": "CC(C)(C)O[C@@H]1C[C@@H](C(=O)Nc2ccc(-c3cnc(-c4ccc(NC(=O)[C@@H]5C[C@@H](OC(C)(C)C)CN5C(=O)OCc5ccccc5)cc4)o3)cc2)N(C(=O)OCc2ccccc2)C1", "note": "[XY-59, dibenzyl (2S,4R,2′S,4′R)-2,2′-(1,3-oxazole-2,5-diylbis(4,1-phenylenecarbamoyl))bis(4-tert-butoxy-1-pyrrolidinecarboxylate)]", "pEC50": "5.00 to 6.00"}
{"molecule": "CC(=O)N1CCC(C(=O)N2CCC[C@H]2C(=O)Nc2ccc(-c3cnc(-c4ccc(NC(=O)[C@@H]5CCCN5C(=O)C5CCN(C(C)=O)CC5)cc4)o3)cc2)CC1", "note": "[XY-23, (2S,2′S)-N,N′-(1,3-oxazole-2,5-diyldi-4,1-phenylene)bis(1-((1-acetyl-4-piperidinyl)carbonyl)-2-pyrrolidinecarboxamide)]", "pEC50": "6.00 to 7.00"}
{"molecule": "Cc1cc(C(=O)N2CCC[C@H]2C(=O)Nc2ccc(-c3cnc(-c4ccc(NC(=O)[C@@H]5CCCN5C(=O)c5cc(C)oc5C)cc4)o3)cc2)c(C)o1", "note": "[XY-34, (2S,2′S)-N,N′-(1,3-oxazole-2,5-diyldi-4,1-phenylene)bis(1-(2,5-dimethyl-3-furoyl)-2-pyrrolidinecarboxamide)]", "pEC50": "6.00 to 7.00"}
{"molecule": "O=C(Nc1ccc(-c2cnc(-c3ccc(NC(=O)[C@@H]4CCCN4C(=O)Cc4ccc(F)cc4)cc3)o2)cc1)[C@@H]1CCCN1C(=O)Cc1ccc(F)cc1", "note": "[XY-22, (2S,2′S)-N,N′-(1,3-oxazole-2,5-diyldi-4,1-phenylene)bis(1-((4-fluorophenyl)acetyl)-2-pyrrolidinecarboxamide)]", "pEC50": "> 8.34"}
{"molecule": "COc1cccc2c(C(=O)N[C@@H](C)C(=O)Nc3ccc(-c4nnc(-c5ccc(NC(=O)[C@H](C)NC(=O)c6nc(Cl)cc7c(OC)cccc67)cc5)o4)cc3)nc(Cl)cc12", "note": "[RK-33, N,N′-(1,3,4-oxadiazole-2,5-diylbis(4,1-phenyleneimino((2S)-1-oxo-1,2-propanediyl)))bis(3-chloro-5-methoxy-1-isoquinolinecarboxamide)]", "pEC50": "6.00 to 7.00"}
{"molecule": "COCCOCC(=O)N1CCC[C@H]1C(=O)Nc1ccc(-c2cnc(-c3ccc(NC(=O)[C@@H]4CCCN4C(=O)COCCOC)cc3)o2)cc1", "note": "[XY-8, (2S,2′S)-N,N′-(1,3-oxazole-2,5-diyldi-4,1-phenylene)bis(1-((2-methoxyethoxy)acetyl)-2-pyrrolidinecarboxamide)]", "pEC50": "5.00 to 6.00"}
{"system": "HCV 1b genotype", "assay": "HCV replicon assay (HCV-neo replicon cells, wild-type)", "type": "cell-based, Hepatitis C virus", "conditions": "Hepatitis C virus, HCV 1b genotype replicon; read-out: EC50 1b", "outline": "as §1"}
{"molecule": "CC(=O)N1CCC[C@H]1C(=O)Nc1ccc(-c2ccc(-c3ccc(NC(=O)[C@@H]4CCCN4C(C)=O)cc3)s2)cc1", "note": "[OL-24, (2S,2′S)-N,N′-(2,5-thienediyldi-4,1-phenylene)bis[1-acetyl-2-pyrrolidinecarboxamide]]", "pEC50": 6.21}
{"molecule": "C[C@](O)(C(=O)N1CCC[C@H]1C(=O)Nc1ccc(-c2nnc(-c3ccc(NC(=O)[C@@H]4CCCN4C(=O)[C@](C)(O)c4ccccc4)cc3)o2)cc1)c1ccccc1", "note": "[RK-28, (2S,2′S)-N,N′-(1,3,4-oxadiazole-2,5-diyldi-4,1-phenylene)bis(1-((2R)-2-hydroxy-2-phenylpropanoyl)-2-pyrrolidinecarboxamide)]", "pEC50": 8.52}
{"molecule": "O=C(Nc1ccc(-c2cnc(-c3ccc(NC(=O)[C@@H]4CCCN4C(=O)C4CCCO4)cc3)o2)cc1)[C@@H]1CCCN1C(=O)C1CCCO1", "note": "(stereo partly drawn) [XY-31, (2S,2′S)-N,N′-(1,3-oxazole-2,5-diyldi-4,1-phenylene)bis(1-(tetrahydro-2-furanylcarbonyl)-2-pyrrolidinecarboxamide)]", "pEC50": 7.27}
{"molecule": "O=C(Nc1ccc(-c2cnc(-c3ccc(NC(=O)[C@@H]4CCCN4C(=O)Cc4ccc(F)cc4)cc3)o2)cc1)[C@@H]1CCCN1C(=O)Cc1ccc(F)cc1", "note": "[XY-22, (2S,2′S)-N,N′-(1,3-oxazole-2,5-diyldi-4,1-phenylene)bis(1-((4-fluorophenyl)acetyl)-2-pyrrolidinecarboxamide)]", "pEC50": "> 8.35"}
